Format in all cases: cell-based
Data set [1] concerns red blood cells (mechanically defibrinated sheep blood). Put plainly: Hemolysis assay (cell lysis). The arrangement: red blood cell lysis: unit not given here. The note with it: 1 hour, 37° C. As for the experimental part:
The effects of the compounds described herein to lyse cells was evaluated in this example. Hemolysis assays were performed on mechanically defibrinated sheep blood (Hemostat Labs: DSB030). 1.5 mL of blood was placed into a microcentrifuge tube and centrifuged at 10,000 rpm for ten minutes. The supernatant was removed and then the cells were resuspended with 1 mL of phosphate-buffered saline (PBS). The suspension was centrifuged as previously, the supernatant was removed, and cells were resuspended two more times. The final cell suspension was diluted twentyfold with PBS. The twentyfold suspension dilution was then aliquoted into microcentrifuge tubes containing compound serially diluted in PBS. TritonX (1% by volume) served as a positive control (100% lysis marker) and sterile PBS served as a negative control (0% lysis marker). Samples were then placed in an incubator at 37° C. and shaken at 200 rpm. After 1 hour, the samples were centrifuged at 10,000 rpm for ten minutes. The absorbance of the supernatant was measured with a UV spectrometer at a 540 nm wavelength. See, e.g., Peng, Chem. Comm. 2011, 47, 4896-4898.

Data set [2] relates to Streptococcus mutans wild-type strain UA159. Put plainly: MIC assay, S. mutans. The note with it: planktonic, 5% CO2, 37° C., 20-24 hours. The text has this:
(§1) Streptococcus mutans wild-type strain UA159 was provided by Dr. Bettina Buttaro from Temple University Medical School, Philadelphia, Pa. Streptococcus gordonii strain DL1 and Streptococcus sanguinis strain 10904 were provided by Dr. Robert G. Quivey from University of Rochester Medical School. Streptococcus gordonii strain DL1 may be obtained from the American Type Culture Collection under accession #49818. Streptococcus sanguinis strain 10904 may be obtained from the National Collection of Type Cultures under accession #10904. Bacteria were routinely maintained on in Bacto™ Todd-Hewitt (TH) agar plates and liquid cultures were grown in Bacto™ Todd-Hewitt broth (THB). For growth of biofilms, THB was supplemented with 0.1% sucrose. Incubation was stagnant at 37° C. Bacterial strains Methicillin-Resistant Staphylococcus aureus HPV107, Staphylococcus epidermidis Fussel [NCTC 11047, R. Hugh 2466], Streptococcus sobrinus SL1 [CCM 6070, CNCTC 9/89], Enterococcus faecalis NCTC 775 [DSM 20478, JCM 8726, NCDO 581, Tissier], Pseudomonas aeruginosa [CCEB 481, MDB strain BU 277, NCIB 8295, NCPPB 1965, NCTC 10332, NRRL B-771, R. Hugh 815], Serratia marcescens BS 303 [CDC 813-60, NCIB 9155, NCTC 10211], and Acinetobacter baumannii 2208 [81, DSM 6974] were purchased from the American Type Culture Collection.
(§2) Stock solutions of compounds (10 mM) were serial diluted (200 μL, 100 μL, 50 μL, 10 μL, and 2 μL) in THB media in flat-bottom 96-well microtiter plates (total volume 100 μL). Bacterial cultures were grown in brain heart infusion or nutrient broth media to mid-exponential phase, back diluted to an OD of 0.1 and then inoculated into the 96-well plate to reach a final volume of 200 μL. Plates were inoculated at 37° C. in 5% CO2 for 20-24 hours upon which time wells were evaluated visually for bacterial growth and/or the wells' OD630 was evaluated via spectrophotometer. […] DMSO controls corresponding to each test concentration were performed. Biological triplicates were performed to confirm results.

Data set [3] has as its system Streptococcus sanguinis strain 10904. Put plainly: MIC assay, S. sanguinis. Particulars: 5% CO2, 37° C., 20-24 hours.
Text: as §1, §2

Data set [4] has as its system Streptococcus gordonii strain DL1. Put plainly: MIC assay, S. gordonii. The note with it: 5% CO2, 37° C., 20-24 hours.
Text: as §1, §2

Where [5] appears, read: Concentration 500 μM, TritonX 100% lysis, PBS 0% lysis.

SMILES strings stand for the structures. ≈ marks a conversion by molar mass, not a printed value.

Take `CC(C)(C)c1ccc(CCc2cccc(O)c2)cc1O` [Compound 1H-3, 2-(tert-butyl)-5-(3-hydroxyphenethyl)phenol]: the “red blood cell lysis” value was 0.11 in data set [1] (Concentration 0.25 μM); 0.00 in data set [1] (Concentration 0.5 μM); −0.03 in data set [1] (Concentration 1 μM); −0.03 in data set [1] (Concentration 2 μM); −0.03 in data set [1] (Concentration 4 μM); 0.29 in data set [1] (Concentration 8 μM). The “red blood cell lysis” value in data set [1] (Concentration 16 μM) is reported as −0.03; in data set [1] (Concentration 32 μM), −0.03; in data set [1] (Concentration 63 μM), 0.00; in data set [1] (Concentration 125 μM), 0.46; in data set [1] (Concentration 250 μM), 0.69; in data set [1] (setting [5]), 0.81.

What is called MIC is the lowest concentration that inhibits growth of the organism. Consider `CC(C)c1cc(-c2c(O)ccc3cc(Br)ccc23)cc(C(C)C)c1O` [Compound B6, 6-Bromo-1-(4-hydroxy-3,5-diisopropylphenyl)naphthalen-2-ol], for which the minimal inhibitory concentration (MIC) in data set [2], in data set [3] and in data set [4] was over 250 µM each time.

`CC(C)(C)c1cc(-c2c(O)ccc3ccccc23)cc(C(C)(C)C)c1O` [Compound B3]: the MIC in data set [2], in data set [3] and in data set [4] was 63 µM (≈ 22 µg/mL) throughout.

On to `C=CCc1cc(-c2c(O)ccc3c(-c4cc(CC=C)c(O)c(C(C)(C)C)c4)c(O)ccc23)cc(C(C)(C)C)c1O` [Compound B14, 1,5-Bis(3-allyl-5-(tert-butyl)-4-hydroxyphenyl)naphthalene-2,6-diol], for which the minimum inhibitory concentration (MIC) in data set [2] worked out at 63 µM (≈ 33.8 µg/mL); in data set [3] it was 16 µM (≈ 8.59 µg/mL); in data set [4] it was 32 µM (≈ 17.2 µg/mL).

Consider `C=CCc1cc(-c2cc(C)c(O)cc2C(C)C)cc(CC=C)c1O` [Compound A10, 3′,5′-Diallyl-2-isopropyl-5-methyl-[1,1′-biphenyl]-4,4′-diol], for which the MIC in data set [2] was over 250 µM; in data set [3], 250 µM (≈ 80.6 µg/mL); in data set [4], 250 µM (≈ 80.6 µg/mL).

Take `CC(C)c1cc(-c2c(O)ccc3cc(-n4cccn4)ccc23)cc(C(C)C)c1O` [Compound B13, 1-(4-Hydroxy-3,5-diisopropylphenyl)-6-(1H-pyrazol-1-yl)naphthalen-2-ol]: the minimal inhibitory concentration (MIC) in data set [2], in data set [3] and in data set [4] was over 250 µM throughout.

As for `CCCc1cc(-c2c(O)ccc3cc(Br)ccc23)cc(C(C)(C)C)c1O` [Compound B12, 6-Bromo-1-(3-(tert-butyl)-4-hydroxy-5-propylphenyl)naphthalen-2-ol], the values for the minimal inhibitory concentration (MIC) in data set [2], in data set [3] and in data set [4] were over 250 µM, 250 µM (≈ 103 µg/mL) and 250 µM (≈ 103 µg/mL), respectively.

For `C=CCc1cc(-c2c(O)cc(C)c(C)c2C)cc(C(C)(C)C)c1O` [Compound A6, 3′-Allyl-5′-(tert-butyl)-4,5,6-trimethyl-[1,1′-biphenyl]2,4′-diol], the MIC in data set [2], in data set [3] and in data set [4] was over 250 µM throughout.

Consider `C=CCc1cc(-c2c(O)ccc3cc(OC)ccc23)cc(C(C)(C)C)c1O` [Compound B7, 1-(3-Allyl-5-(tert-butyl)-4-hydroxyphenyl)-6-methoxynaphthalen-2-ol], for which the MIC in data set [2] was determined as 125 µM (≈ 45.3 µg/mL); in data set [3] it was 63 µM (≈ 22.8 µg/mL); in data set [4], 125 µM (≈ 45.3 µg/mL).

For `Cc1cc(-c2cc(C)c(O)c(C)c2)cc(C)c1O` [Compound A3], the MIC in data set [2], in data set [3] and in data set [4] was over 250 µM each time.

`CCCc1c(C)cc(C)c(-c2c(C)cc(C)c(CCC)c2O)c1O` [Compound A4, 4,4’,6,6′-Tetramethyl-3,3′-dipropyl-[1,1′-diphenyl]2,2′-diol]: the minimal inhibitory concentration (MIC) in data set [2], in data set [3] and in data set [4] was over 250 µM throughout.

Regarding `Cc1cc(-c2c(O)ccc3ccccc23)cc(C)c1O` [Compound B1, 1-(4-Hydroxy-3,5-dimethylphenyl)naphthalene-2-ol], the MIC in data set [2], in data set [3] and in data set [4] was over 250 µM throughout.

Consider `C=CCc1cc(-c2cc(C)ccc2O)cc(C(C)(C)C)c1O` [Compound A8, 3′-Allyl-5′-(tert-butyl)-5-methyl-[1,1′-biphenyl]2,4′-diol], for which the MIC is over 250 µM in data set [2], 125 µM (≈ 37.1 µg/mL) in data set [3] and 125 µM (≈ 37.1 µg/mL) in data set [4].

`COc1cc(-c2c(O)ccc3ccccc23)cc(OC)c1O` [Compound B2, 1-(4-Hydroxy-3,5-dimethoxyphenyl)naphthalen-2-ol]: the MIC in data set [2], in data set [3] and in data set [4] was over 250 µM each time.

For the compound `CC(C)(C)c1cc(-c2c(O)ccc3ccc(O)cc23)cc(C(C)(C)C)c1O` [Compound B4, 1-(3,5-Di-tert-butyl-4-hydroxyphenol)naphthalene-2-7-diol], the minimum inhibitory concentration (MIC) in data set [2], in data set [3] and in data set [4] was 125 µM (≈ 45.6 µg/mL) each time.

Consider `Cc1c(O)c(-c2cc(C(C)(C)C)c(O)c(C(C)(C)C)c2)c(C)c(-c2cc(C(C)(C)C)c(O)c(C(C)(C)C)c2)c1O` [Compound A11, 3,3″,5,5″-Tetra-tert-butyl-2′,5′-dimethyl-[1,1′:3′,1″-terphenyl]-4,4′,4″,6′-tetraol], for which the minimal inhibitory concentration (MIC) in data set [2], in data set [3] and in data set [4] was over 250 µM throughout.

As to `COc1cc(CCc2ccc(C(C)(C)C)c(O)c2)ccc1C(C)(C)C` [Compound 1H-2, (tert-butyl)-5-(4-(tert-butyl)-3-methoxyphenethyl)phenol], the “red blood cell lysis” value in data set [1] (Concentration 0.25 μM) was 0.13; in data set [1] (Concentration 0.5 μM), −0.02; in data set [1] (Concentration 1 μM), −0.02; in data set [1] (Concentration 2 μM), −0.03; in data set [1] (Concentration 4 μM), 0.16; in data set [1] (Concentration 8 μM) it was −0.03. The “red blood cell lysis” value in data set [1] (Concentration 16 μM) is given as −0.03; in data set [1] (Concentration 32 μM), −0.02; in data set [1] (Concentration 63 μM) it was 0.02; in data set [1] (Concentration 125 μM), 0.12; in data set [1] (Concentration 250 μM), 0.21; in data set [1] (setting [5]), 0.33.

With `C=CCc1c(C)cc(C)c(-c2c(C)cc(C)c(CC=C)c2O)c1O` [Compound A5, 3,3′Diallyl-4,4′,6,6′-tetramethyl-[1,1′-biphenyl]-2,2′-diol], the MIC in data set [2], in data set [3] and in data set [4] was over 250 µM each time.

`Cc1cc(O)c(-c2cc(C(C)C)c(O)c(C(C)C)c2)c(C)c1C` [Compound A9, 3′,5′-Diisopropyl-4,5,6-trimethyl-[1,1′-biphenyl]-2,4′-diol]: the MIC in data set [2], in data set [3] and in data set [4] was over 250 µM throughout.

Consider `COc1cccc(CCc2ccccc2O)c1` [Compound 6], for which the “red blood cell lysis” value was 0.03 in data set [1] (Concentration 0.25 μM); −0.02 in data set [1] (Concentration 0.5 μM); −0.03 in data set [1] (Concentration 1 μM); −0.03 in data set [1] (Concentration 2 μM); 0.35 in data set [1] (Concentration 4 μM); −0.03 in data set [1] (Concentration 8 μM). The “red blood cell lysis” value is recorded as −0.03 in data set [1] (Concentration 16 μM); −0.02 in data set [1] (Concentration 32 μM); 0.07 in data set [1] (Concentration 63 μM); −0.02 in data set [1] (Concentration 125 μM); 0.02 in data set [1] (Concentration 250 μM); 0.27 in data set [1] (setting [5]).

These data come from patent publication US20200375949A1, “BISPHENOL COMPOUNDS” (THE TRUSTEES OF THE UNIVERSITY OF PENNSYLVANIA, priority 2017, published 2020).
